Source: article PMC8317065, “UPLC-MS/MS Method for Analysis of Endocannabinoid and Related Lipid Metabolism in Mouse Mucosal Tissue” (Frontiers in Physiology, 2021)

Tested on: DGL
Experiment: DGL (MAG biosynthetic enzyme) activity assay, UPLC-MS/MS, jejunum epithelium protein isolates
Format: biochemical, mouse
Conditions: jejunum epithelium protein 50 μg
Experimental: Homogenized samples were centrifuged at 800 × g for 15 m at 4°C. The supernatant was collected in a 2.0 mL centrifuge tube and sonicated twice for 10 s. Samples underwent two sequential freeze thaw cycles using liquid N2. Samples were again centrifuged at 800 × g, 15 min, 4°C and the supernatant was collected. Total protein was then quantified via BCA assay and normalized between all samples. Protein isolations for each assay and each tissue were performed separately.
Substrate solutions were prepared by drying stock 19:2 DAG (20 nmol/reaction) under N2 steam (99.998% pure) and reconstituted in a solution of 50 mM Tris–HCl with 0.2% Triton x-100 (pH = 7.0). This solution was bath sonicated for 60 min at room temperature while protein samples were prepared. […] The products of the reaction were extracted via lipid extraction methods (see section “Lipid Extraction for Enzyme Assays”) and quantified via UPLC-MS/MS (see section “Quantitation of MAG Biosynthetic Enzyme Activity Assay Products”).
Lipids were extracted using liquid-liquid extraction with chloroform (2.0 mL) followed by 0.8 mL 0.2-micron ultra-purified water. […] Products were detected and quantified via UPLC-MS/MS techniques (see section “UPLC-MS/MS Detection of Analytes”). […]

DGL activity (normalized response) (highest inhibitor concentration of range (1,000 nM)): 20.39 ± 6.65% | DGL activity (normalized response) (lowest inhibitor concentration of range (3 nM)): 108.85 ± 6.19%
Structure (SMILES): CCCCCCCCCCC[C@@H](C[C@@H]1OC(=O)[C@H]1CCCCCC)OC(=O)[C@H](CC(C)C)NC=O [THL, tetrahydrolipstatin]
